Source: the NIST ThermoML archive (doi:10.1016/j.jct.2015.12.029)

Test: mn = molality of the nth substance listed, in mol/kg
Conditions: 100 kPa, Liquid; for molar conductivity: Alternating current cell with electrodes; for mass density: Vibrating tube method, m1 = 0.009397

CCn1cc[n+](C)c1.F[B-](F)(F)F [1-ethyl-3-methylimidazolium tetrafluoroborate] + CCCCO
molar conductivity [S·m2/mol]
Conditions	283.15 K	288.15 K	293.15 K	298.15 K	303.15 K	308.15 K	313.15 K	318.15 K
m1 = 3.974e-05	0.00127	0.00144	0.00165	0.00188	0.00213	0.002402	0.00268	0.003
m1 = 6.936e-05	0.001204	0.00138	0.00158	0.0018	0.00203	0.00228	0.00255	0.00284
m1 = 0.0001047	0.00115	0.00132	0.001505	0.00172	0.00193	0.00217	0.00242	0.00269
m1 = 0.0001865	0.00106	0.00121	0.00138	0.00157	0.00177	0.00198	0.0022	0.00244
m1 = 0.0002945	0.000977	0.00111	0.00127	0.00144	0.00162	0.00181	0.00201	0.00222
m1 = 0.0004005	0.000913	0.00104	0.00119	0.00134	0.00151	0.00169	0.00187	0.00206
m1 = 0.000688	0.000802	0.000915	0.00104	0.00117	0.00131	0.00146	0.00162	0.00178
m1 = 0.0009724	0.000729	0.00083	0.000943	0.00106	0.00119	0.00133	0.00147	0.00161
m1 = 0.001464	0.000642	0.000733	0.000833	0.000942	0.00106	0.00117	0.00129	0.00142
m1 = 0.001942	0.000597	0.000668	0.000762	0.000859	0.000961	0.00107	0.00118	0.00129
m1 = 0.002839	0.000519	0.000592	0.000671	0.000759	0.000848	0.000941	0.00103	0.00114

Conditions	mass density [kg/m3]
283.15 K	817.716
288.15 K	813.954
293.15 K	810.164
298.15 K	806.357
303.15 K	802.519
308.15 K	798.653
313.15 K	794.75
318.15 K	790.804
